Data: patent publication US20240376091A1, “THIADIAZOLEAMIDE DERIVATIVES AND THEIR APPLICATIONS” (ZHEJIANG UNIVERSITY, priority 2021, published 2024)

The compounds below were run against T1, AR (Homo sapiens, UniProt P10275, T878A) (assay: AR transcriptional activity, LNCaP-ARR2PB-eGFP reporter cells). Settings: read-out: IC50 AR transcriptional activities.
T1 construct: into the androgen-dependent PCa cells (LNCaP); endogenous in cells; host or cells: LNCaP-ARR2PB-eGFP
T1 sequence (P10275 1-920 T878A): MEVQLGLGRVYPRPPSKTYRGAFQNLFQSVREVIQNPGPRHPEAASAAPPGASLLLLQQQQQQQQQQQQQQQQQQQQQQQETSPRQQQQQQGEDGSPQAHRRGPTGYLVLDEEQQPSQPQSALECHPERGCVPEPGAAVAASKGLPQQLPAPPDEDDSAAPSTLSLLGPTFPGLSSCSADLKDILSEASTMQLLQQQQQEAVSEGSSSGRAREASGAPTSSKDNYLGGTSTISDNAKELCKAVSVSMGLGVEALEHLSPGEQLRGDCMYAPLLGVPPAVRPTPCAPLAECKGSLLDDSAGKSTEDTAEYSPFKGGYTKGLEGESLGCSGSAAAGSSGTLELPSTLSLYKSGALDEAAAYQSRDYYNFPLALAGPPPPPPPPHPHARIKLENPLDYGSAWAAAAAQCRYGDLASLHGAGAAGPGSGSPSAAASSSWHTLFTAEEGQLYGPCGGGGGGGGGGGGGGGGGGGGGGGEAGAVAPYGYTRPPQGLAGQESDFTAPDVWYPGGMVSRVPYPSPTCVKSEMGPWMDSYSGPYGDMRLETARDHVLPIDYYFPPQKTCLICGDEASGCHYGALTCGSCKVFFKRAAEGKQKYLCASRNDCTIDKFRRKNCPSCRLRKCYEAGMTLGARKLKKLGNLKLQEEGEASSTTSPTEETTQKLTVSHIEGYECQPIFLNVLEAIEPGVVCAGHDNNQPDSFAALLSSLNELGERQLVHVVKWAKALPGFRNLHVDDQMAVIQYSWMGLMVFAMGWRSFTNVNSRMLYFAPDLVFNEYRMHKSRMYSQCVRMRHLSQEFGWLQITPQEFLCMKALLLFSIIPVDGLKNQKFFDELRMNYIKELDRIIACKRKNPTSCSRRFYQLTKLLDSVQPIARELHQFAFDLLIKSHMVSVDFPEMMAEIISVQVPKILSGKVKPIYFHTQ
Assay type: cell-based
Description: Detection principles: We conducted a stable transfection of promoter ARR2PB known for its strong AR responsiveness, into the androgen-dependent PCa cells (LNCaP). The expression of enhanced green fluorescent protein (eGFP) is depending on the degree of activation of AR. Therefore, LNCaP-ARR2PB-eGFP cell line could quantitatively determine the AR antagonistic activities of the compounds by evaluating the expression of eGFP.

`COc1cccc(-c2cc(C(=O)Nc3nc(CN4CCOCC4)ns3)oc2C)c1` [Compound F-26, 4-(3-Methoxyphenyl)-5-methyl-N-(3-(morpholinomethyl)-1,2,4-thiadiazol-5-yl)furan-2-carboxamide] and `Cc1oc(C(=O)Nc2nc(CN3CCCC3)ns2)cc1-c1cccc(C(F)(F)F)c1` [Compound F-24, 5-Methyl-N-(3-(pyrrolidin-1-ylmethyl)-1,2,4-thiadiazol-5-yl)-4-(3-(trifluoromethyl)phenyl)furan-2-carboxamide] are within 1.5-fold of each other in IC50: 31.9 µM for the first, 35.2 µM for the second.

Going from `CC(=O)Cc1nsc(NC(=O)c2cc(-c3cccc(C#N)c3)oc2C)n1` [Compound A-3, 5-(3-Cyanophenyl)-2-methyl-N-(3-(2-oxopropyl)-1,2,4-thiadiazol-5-yl)furan-3-carboxamide] to `[2H]c1c(-c2cccc(C#N)c2)oc(C)c1C(=O)Nc1nc(CC(C)=O)ns1` [Compound A-35, 5-(3-Cyanophenyl)-2-methyl-N-(3-(2-oxopropyl)-1,2,4-thiadiazol-5-yl)furan-4-d-3-carboxamide], the IC50 rises from 0.32 µM to 0.72 µM (2.2-fold). The first is the more potent here.

Compared with `COc1cccc(-c2cc(C(=O)Nc3nc(CC(C)N4CCCCC4)ns3)c(C)o2)c1` (stereo not drawn) [Compound A-49, 5-(3-Methoxyphenyl)-2-methyl-N-(3-(2-(piperidin-1-yl)propyl)-1,2,4-thiadiazol-5-yl)furan-3-carboxamide], `Cc1oc(-c2cccc(C#N)c2)cc1C(=O)Nc1nc(CC(C)N2CCCC2)ns1` (stereo not drawn) [Compound A-46, 5-(3-Cyanophenyl)-2-methyl-N-(3-(2-(pyrrolidin-1-yl)propyl)-1,2,4-thiadiazol-5-yl)furan-3-carboxamide] is 2-fold higher in IC50: 0.21 µM for the first, 0.41 µM for the second.

Going from `Cc1oc(C(=O)Nc2nc(CC(C)(O)C(F)(F)F)ns2)cc1-c1cccc(C(F)(F)F)c1` (stereo not drawn) [Compound F-13, 5-Methyl-N-(3-(3,3,3-trifluoro-2-hydroxy-2-methylpropyl)-1,2,4-thiadiazol-5-yl)-4-(3-(tri-fluoromethyl)phenyl)furan-2-carboxamide] to `CC(F)(F)Cc1nsc(NC(=O)c2csc(-c3cccc(C(F)(F)F)c3)c2)n1` [Compound D-35, N-(3-(2,2-difluoropropyl)-1,2,4-thiadiazol-5-yl)-5-(3-(trifluoromethyl)phenyl)thiophene-3-carboxamide], the IC50 rises from 31.5 µM to 49.5 µM (1.6-fold). The first is the more potent here.

Going from `COc1cccc(-c2cc(C(=O)Nc3nc(CC(C)=O)ns3)c(C(F)(F)F)o2)c1` [Compound E-3, 5-(3-Methoxyphenyl)-N-(3-(2-oxopropyl)-1,2,4-thiadiazol-5-yl)-2-(trifluoromethyl)furan-3-carboxamide] to `CC(=O)Cc1nsc(NC(=O)c2coc(-c3cccc(OC(F)F)c3)c2)n1` [Compound B-5, 5-(3-(Difluoromethoxy)phenyl)-N-(3-(2-oxopropyl)-1,2,4-thiadiazol-5-yl)furan-3-carboxamide], the IC50 rises from 0.57 µM to 19.6 µM (34-fold). The first is the more potent here.

Going from `CC(Cc1nsc(NC(=O)c2coc(-c3cccc(C#N)c3)c2)n1)N1CCCC1` (stereo not drawn) [Compound B-12, 5-(3-Cyanophenyl)-N-(3-(2-(pyrrolidin-1-yl)propyl)-1,2,4-thiadiazol-5-yl)furan-3-carboxamide] to `CC(Cc1nsc(NC(=O)c2csc(-c3cccc(C#N)c3)c2)n1)N1CCCC1` [Compound D-12, 5-(3-Cyanophenyl)-N-(3-(2-(pyrrolidin-1-yl)propyl)-1,2,4-thiadiazol-5-yl)thiophene-3-carboxamide], the IC50 falls from 23.3 µM to 13 µM (1.8-fold). The second is the more potent here.

First: Cc1oc(-c2cccc(C(F)(F)F)c2)cc1C(=O)Nc1ncns1 [Compound A-99, 2-Methyl-N-(1,2,4-thiadiazol-5-yl)-5-(3-(trifluoromethyl)phenyl)furan-3-carboxamide]
Second: Cc1oc(-c2cccc(C(F)(F)F)c2)cc1C(=O)Nc1nc(CC(C)N2CCCC2)ns1 (stereo not drawn) [Compound A-40, 2-Methyl-N-(3-(2-(pyrrolidin-1-yl)propyl)-1,2,4-thiadiazol-5-yl)-5-(3-(trifluoromethyl)phenyl)furan-3-carboxamide]
The IC50 of the first is 45-fold higher: 10.4 µM for the first, 0.23 µM for the second.

Going from `CN1CCN(Cc2nsc(NC(=O)c3cc(-c4cccc(OC(F)F)c4)co3)n2)CC1` [Compound G-28, 4-(3-(Difluoromethoxy)phenyl)-N-(3-((4-methylpiperazin-1-yl)methyl)-1,2,4-thiadiazol-5-yl)furan-2-carboxamide] to `Cc1oc(-c2cccc(OC(F)F)c2)cc1C(=O)Nc1nc(CN2CCN(C)CC2)ns1` [Compound A-131, 5-(3-(Difluoromethoxy)phenyl)-2-methyl-N-(3-((4-methylpiperazin-1-yl)methyl)-1,2,4-thiadiazol-5-yl)furan-3-carboxamide], the IC50 falls from 39.2 µM to 1.42 µM (28-fold). The second is the more potent here.

Compared with `Cc1sc(-c2cccc(C(F)(F)F)c2)cc1C(=O)Nc1nc(CC(C)N(C)C)ns1` (stereo not drawn) [Compound C-6, N-(3-(2-(dimethylamino)propyl)-1,2,4-thiadiazol-5-yl)-2-methyl-5-(3-(trifluoromethyl)phenyl)thiophene-3-carboxamide], `Cc1sc(-c2cccc(C(F)(F)F)c2)cc1C(=O)Nc1nc(CCl)ns1` [Compound C-40, N-(3-(chloromethyl)-1,2,4-thiadiazol-5-yl)-2-methyl-5-(3-(trifluoromethyl)phenyl)thiophene-3-carboxamide] is 2.7-fold lower in IC50: 33.2 µM for the first, 12.3 µM for the second.

`O=C(Nc1nc(CN2CCCCC2)ns1)c1coc(-c2cccc(OC(F)F)c2)c1` [Compound B-56, 5-(3-(Difluoromethoxy)phenyl)-N-(3-(piperidin-1-ylmethyl)-1,2,4-thiadiazol-5-yl)furan-3-carboxamide] and `O=C(Nc1nc(CN2CCOCC2)ns1)c1coc(-c2cccc(OC(F)F)c2)c1` [Compound B-57, 5-(3-(Difluoromethoxy)phenyl)-N-(3-(morpholinomethyl)-1,2,4-thiadiazol-5-yl)furan-3-carboxamide] are within 1.5-fold of each other in IC50: 28.3 µM for the first, 23.5 µM for the second.

`Cc1oc(C(=O)Nc2nc(CC(C)N3CCCC3)ns2)cc1-c1cccc(C(F)(F)F)c1` (stereo not drawn) [Compound F-6] and `CC(Cc1nsc(NC(=O)c2cc(-c3cccc(C(F)(F)F)c3)co2)n1)N1CCCC1` (stereo not drawn) [Compound G-6, N-(3-(2-(pyrrolidin-1-yl)propyl)-1,2,4-thiadiazol-5-yl)-4-(3-(trifluoromethyl)phenyl) furan-2-carboxamide] are within 1.5-fold of each other in IC50: 17.9 µM for the first, 13.9 µM for the second.

Compared with `CC(Cc1nsc(NC(=O)c2cc(-c3cccc(OC(F)(F)F)c3)co2)n1)N1CCN(C)CC1` (stereo not drawn) [Compound G-9, N-(3-(2-(4-methylpiperazin-1-yl)propyl)-1,2,4-thiadiazol-5-yl)-4-(3-(trifluoromethoxy)phenyl)furan-2-carboxamide], `Cc1oc(C(=O)Nc2nc(CC(C)N3CCN(C)CC3)ns2)cc1-c1cccc(OC(F)F)c1` (stereo not drawn) [Compound F-10, 4-(3-(Difluoromethoxy)phenyl)-5-methyl-N-(3-(2-(4-methylpiperazin-1-yl)propyl)-1,2,4-thiadiazol-5-yl)furan-2-carboxamide] is 1.7-fold lower in IC50: 47.2 µM for the first, 27.1 µM for the second.

`CC(=O)Cc1nsc(NC(=O)c2cc(-c3cccc(OC(F)F)c3)co2)n1` [Compound G-5, 4-(3-(Difluoromethoxy)phenyl)-N-(3-(2-oxopropyl)-1,2,4-thiadiazol-5-yl)furan-2-carboxamide] and `COc1cccc(-c2coc(C(=O)Nc3nc(CC(C)=C(F)F)ns3)c2)c1` [Compound G-15, N-(3-(3,3-difluoro-2-methylallyl)-1,2,4-thiadiazol-5-yl)-4-(3-methoxyphenyl)furan-2-carboxamide] are within 1.5-fold of each other in IC50: 32.7 µM for the first, 24.1 µM for the second.

`Cc1sc(-c2cccc(OC(F)F)c2)cc1C(=O)Nc1nc(CN2CCOCC2)ns1` [Compound C-57, 5-(3-(Difluoromethoxy)phenyl)-2-methyl-N-(3-(morpholinomethyl)-1,2,4-thiadiazol-5-yl)thiophene-3-carboxamide] and `Cc1sc(-c2cccc(OC(F)(F)F)c2)cc1C(=O)Nc1nc(CN2CCCC2)ns1` [Compound C-53, 2-Methyl-N-(3-(pyrrolidin-1-ylmethyl)-1,2,4-thiadiazol-5-yl)-5-(3-(trifluoromethoxy)phenyl)thiophene-3-carboxamide] are within 1.5-fold of each other in IC50: 13.3 µM for the first, 14.8 µM for the second.

Compared with `CC(Cc1nsc(NC(=O)c2coc(-c3cccc(C(F)(F)F)c3)c2)n1)=C(F)F` [Compound B-30, N-(3-(3,3-difluoro-2-methylallyl)-1,2,4-thiadiazol-5-yl)-5-(3-(trifluoromethyl)phenyl) furan-3-carboxamide], `CC(=O)Cc1nsc(NC(=O)c2cc(-c3ccc4ccccc4c3)oc2C)n1` [Compound A-12, 2-Methyl-5-(naphthalen-2-yl)-N-(3-(2-oxopropyl)-1,2,4-thiadiazol-5-yl)furan-3-carboxamide] is 1.6-fold lower in IC50: 4.93 µM for the first, 3.17 µM for the second. The second is the more potent here.
